Source: ChEMBL document CHEMBL1201862, “PubChem BioAssay data set” (2004)
Counter-ions that a name gives are not always drawn. The source made the active and inactive calls.

Tests used:
[1] = biological target: T1, Sentrin-specific protease 1 (Homo sapiens, UniProt Q9P0U3); experiment: potency of human SENP1 inhibitors, dose response, biochemical, kinetic FRET (AID 651697); type: functional; conditions: read-out: IC50_Mean
T1 sequence (Q9P0U3 whole entry): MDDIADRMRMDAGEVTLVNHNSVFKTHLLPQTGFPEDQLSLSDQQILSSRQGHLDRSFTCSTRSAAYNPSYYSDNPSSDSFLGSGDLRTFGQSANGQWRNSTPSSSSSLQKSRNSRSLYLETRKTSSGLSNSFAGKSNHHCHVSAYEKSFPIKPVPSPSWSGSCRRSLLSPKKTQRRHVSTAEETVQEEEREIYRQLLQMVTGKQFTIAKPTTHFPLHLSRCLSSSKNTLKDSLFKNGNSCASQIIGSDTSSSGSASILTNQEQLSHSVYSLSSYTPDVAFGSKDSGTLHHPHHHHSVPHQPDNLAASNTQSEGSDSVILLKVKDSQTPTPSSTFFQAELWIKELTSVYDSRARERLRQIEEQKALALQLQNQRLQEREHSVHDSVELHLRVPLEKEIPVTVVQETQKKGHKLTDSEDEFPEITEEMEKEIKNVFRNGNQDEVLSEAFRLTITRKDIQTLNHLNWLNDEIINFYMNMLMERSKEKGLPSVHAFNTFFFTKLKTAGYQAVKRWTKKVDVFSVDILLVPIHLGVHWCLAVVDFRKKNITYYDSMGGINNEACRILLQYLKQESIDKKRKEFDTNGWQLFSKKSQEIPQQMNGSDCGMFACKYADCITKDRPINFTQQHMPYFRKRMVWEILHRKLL

[2] = biological target: T1, Sentrin-specific protease 1; experiment: Dose response confirmation of small molecule inhibitors of the catalytic domain of the SUMO protease, SENP1 in a FRET assay.; type: functional; conditions: read-out: IC50_Mean
[3] = AlphaScreen signal interference compounds, dose response, artefact control for ARNT-TACC3 interaction inhibitor project, biochemical, luminescence, cherry-pick (AID 651705); type: functional;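 note: AlphaScreen bead proximity signal that flags compounds interfering with the detection technology; potency reflects signal decrease which marks the compound as an assay artifact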
[4] = inhibitors of SNCA 5'UTR-driven reporter translation, confirmation, H4 neuroglioma cells, luminescence (AID 1988); type: functional, cell-based
[5] = biological target: Beta-galactosidase (Escherichia coli, UniProt Q8VNN2); experiment: PubChem AID 485352; type: functional
[6] = biological target: Luciferin 4-monooxygenase (Photinus pyralis, UniProt P08659); experiment: firefly luciferase enzyme inhibitors, dose response, biochemical, luminescence (AID 1891)
[7] = biological target: T2, Type-1 angiotensin II receptor (Homo sapiens, UniProt P30556); experiment: AT1 receptor antagonists, dose response, selectivity assay for APJ receptor antagonist project, cell-based, uHTS hits (AID 463214); type: functional;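 note: antagonist potency against angiotensin II stimulated AT1 response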
T2 sequence (P30556 whole entry): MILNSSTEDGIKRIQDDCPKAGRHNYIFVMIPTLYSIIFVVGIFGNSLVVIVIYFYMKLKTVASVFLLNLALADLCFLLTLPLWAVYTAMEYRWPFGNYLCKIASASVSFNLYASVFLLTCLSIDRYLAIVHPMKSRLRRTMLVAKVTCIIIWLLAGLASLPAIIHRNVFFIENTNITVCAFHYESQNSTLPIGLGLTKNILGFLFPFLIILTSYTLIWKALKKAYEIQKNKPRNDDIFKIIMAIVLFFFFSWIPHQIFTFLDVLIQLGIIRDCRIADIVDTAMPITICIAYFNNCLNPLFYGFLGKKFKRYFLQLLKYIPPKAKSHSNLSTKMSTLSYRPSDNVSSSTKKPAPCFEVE

[8] = Luminescence Cell-Based Dose Confirmation HTS to Identify Inhibitors of Platelet Dense Granule Release. [Related pubchem assays: 1663 (Primary HTS), 1678 (Summary of Project)]; type: functional
[9] = inhibitors of firefly luciferase expression or activity, dose response, H4 neuroglioma cells, luminescence (AID 1990); type: functional, cell-based
[10] = biological target: T3, Latent membrane protein 1 (Human herpesvirus 4 (strain B95-8), UniProt P03230); experiment: TES1-eGFP NF-kB reporter inhibition versus Tet-On dsRED, dose response, selectivity assay for LMP1 NF-kB inhibitor project, imaging, HEK293T, dual-color eGFP/dsRED, cherry-picks (AID 588398); type: functional, cell-based
T3 sequence (P03230 whole entry): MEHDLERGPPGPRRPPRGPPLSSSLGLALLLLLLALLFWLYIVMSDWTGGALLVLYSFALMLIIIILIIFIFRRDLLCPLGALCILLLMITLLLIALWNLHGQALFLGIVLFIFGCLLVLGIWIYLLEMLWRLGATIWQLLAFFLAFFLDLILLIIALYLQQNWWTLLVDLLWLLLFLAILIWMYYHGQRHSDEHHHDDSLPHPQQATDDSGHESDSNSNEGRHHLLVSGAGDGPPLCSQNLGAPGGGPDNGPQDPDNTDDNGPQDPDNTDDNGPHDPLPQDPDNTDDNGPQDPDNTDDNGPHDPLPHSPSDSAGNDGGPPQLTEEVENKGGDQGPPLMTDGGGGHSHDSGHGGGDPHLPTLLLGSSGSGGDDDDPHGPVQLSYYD

[11] = biological target: Photoreceptor-specific nuclear receptor (Homo sapiens, UniProt Q9Y5X4); type: functional, cell-based;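 note: CHO-S cells with Gal4-NCOR and VP16-NR2E3 two-hybrid luciferase reporter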
[12] = Luminescence Cell-Based Dose Retest to Confirm Inhibitors of Cancer Stem Cells. [Related pubchem assays (depositor defined):AID2717, AID2721]; type: functional; conditions: Homo sapiens
[13] = test system: HeLa; experiment: HeLa cell cytotoxicity, dose response, cytotoxicity control for MITF activator project, CellTiter-Glo luminescence, cherry-pick samples (AID 540259); type: functional, cell-based; conditions: Homo sapiens
[14] = biological target: SWI/SNF-related matrix-associated actin-dependent regulator of chromatin subfamily A member 2 (Homo sapiens, UniProt P51531); experiment: Luminescence-based cell-based high throughput dose response assay to identify activators of the function of SWI/SNF related, matrix associated, actin dependent regulator of chromatin, subfamily a, member 2 (SMARCA2, BRM).; type: functional
[15] = Counterscreen for activators of the function of SWI/SNF related, matrix associated, actin dependent regulator of chromatin, subfamily a, member 2 (SMARCA2, BRM): Luminescence-based cell-based high throughput dose response assay to identify non-selective compounds using the VP16 reporter assay.; type: functional

Chain of Beta-galactosidase (Q8VNN2 whole entry): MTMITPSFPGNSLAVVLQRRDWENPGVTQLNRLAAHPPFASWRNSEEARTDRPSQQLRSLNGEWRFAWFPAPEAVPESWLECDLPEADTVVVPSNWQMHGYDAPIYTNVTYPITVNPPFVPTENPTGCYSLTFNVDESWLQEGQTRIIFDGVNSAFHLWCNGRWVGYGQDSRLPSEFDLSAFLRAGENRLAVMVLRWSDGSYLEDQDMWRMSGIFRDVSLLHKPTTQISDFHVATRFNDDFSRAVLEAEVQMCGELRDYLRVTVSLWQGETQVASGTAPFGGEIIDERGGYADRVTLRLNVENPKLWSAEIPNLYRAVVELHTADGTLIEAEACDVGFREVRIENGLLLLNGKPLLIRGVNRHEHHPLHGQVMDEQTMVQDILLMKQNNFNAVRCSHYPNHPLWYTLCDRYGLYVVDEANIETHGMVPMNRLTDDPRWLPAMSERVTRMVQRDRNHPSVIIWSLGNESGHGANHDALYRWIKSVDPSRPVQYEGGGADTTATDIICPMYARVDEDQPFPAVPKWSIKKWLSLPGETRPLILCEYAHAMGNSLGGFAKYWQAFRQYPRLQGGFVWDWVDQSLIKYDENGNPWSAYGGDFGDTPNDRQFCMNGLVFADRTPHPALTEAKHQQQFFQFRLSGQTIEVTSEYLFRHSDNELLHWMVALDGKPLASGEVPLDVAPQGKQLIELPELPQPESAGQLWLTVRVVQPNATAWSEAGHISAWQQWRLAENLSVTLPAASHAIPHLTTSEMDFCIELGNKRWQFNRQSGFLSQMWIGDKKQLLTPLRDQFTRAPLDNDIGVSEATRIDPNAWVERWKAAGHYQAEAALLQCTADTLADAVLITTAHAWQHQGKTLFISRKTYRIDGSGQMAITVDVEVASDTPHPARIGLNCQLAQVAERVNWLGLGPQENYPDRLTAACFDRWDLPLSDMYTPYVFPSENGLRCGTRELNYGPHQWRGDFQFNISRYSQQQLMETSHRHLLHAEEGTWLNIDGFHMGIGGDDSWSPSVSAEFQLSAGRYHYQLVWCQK
Chain of SWI/SNF-related matrix-associated actin-dependent regulator of chromatin subfamily A member 2 (P51531 whole entry): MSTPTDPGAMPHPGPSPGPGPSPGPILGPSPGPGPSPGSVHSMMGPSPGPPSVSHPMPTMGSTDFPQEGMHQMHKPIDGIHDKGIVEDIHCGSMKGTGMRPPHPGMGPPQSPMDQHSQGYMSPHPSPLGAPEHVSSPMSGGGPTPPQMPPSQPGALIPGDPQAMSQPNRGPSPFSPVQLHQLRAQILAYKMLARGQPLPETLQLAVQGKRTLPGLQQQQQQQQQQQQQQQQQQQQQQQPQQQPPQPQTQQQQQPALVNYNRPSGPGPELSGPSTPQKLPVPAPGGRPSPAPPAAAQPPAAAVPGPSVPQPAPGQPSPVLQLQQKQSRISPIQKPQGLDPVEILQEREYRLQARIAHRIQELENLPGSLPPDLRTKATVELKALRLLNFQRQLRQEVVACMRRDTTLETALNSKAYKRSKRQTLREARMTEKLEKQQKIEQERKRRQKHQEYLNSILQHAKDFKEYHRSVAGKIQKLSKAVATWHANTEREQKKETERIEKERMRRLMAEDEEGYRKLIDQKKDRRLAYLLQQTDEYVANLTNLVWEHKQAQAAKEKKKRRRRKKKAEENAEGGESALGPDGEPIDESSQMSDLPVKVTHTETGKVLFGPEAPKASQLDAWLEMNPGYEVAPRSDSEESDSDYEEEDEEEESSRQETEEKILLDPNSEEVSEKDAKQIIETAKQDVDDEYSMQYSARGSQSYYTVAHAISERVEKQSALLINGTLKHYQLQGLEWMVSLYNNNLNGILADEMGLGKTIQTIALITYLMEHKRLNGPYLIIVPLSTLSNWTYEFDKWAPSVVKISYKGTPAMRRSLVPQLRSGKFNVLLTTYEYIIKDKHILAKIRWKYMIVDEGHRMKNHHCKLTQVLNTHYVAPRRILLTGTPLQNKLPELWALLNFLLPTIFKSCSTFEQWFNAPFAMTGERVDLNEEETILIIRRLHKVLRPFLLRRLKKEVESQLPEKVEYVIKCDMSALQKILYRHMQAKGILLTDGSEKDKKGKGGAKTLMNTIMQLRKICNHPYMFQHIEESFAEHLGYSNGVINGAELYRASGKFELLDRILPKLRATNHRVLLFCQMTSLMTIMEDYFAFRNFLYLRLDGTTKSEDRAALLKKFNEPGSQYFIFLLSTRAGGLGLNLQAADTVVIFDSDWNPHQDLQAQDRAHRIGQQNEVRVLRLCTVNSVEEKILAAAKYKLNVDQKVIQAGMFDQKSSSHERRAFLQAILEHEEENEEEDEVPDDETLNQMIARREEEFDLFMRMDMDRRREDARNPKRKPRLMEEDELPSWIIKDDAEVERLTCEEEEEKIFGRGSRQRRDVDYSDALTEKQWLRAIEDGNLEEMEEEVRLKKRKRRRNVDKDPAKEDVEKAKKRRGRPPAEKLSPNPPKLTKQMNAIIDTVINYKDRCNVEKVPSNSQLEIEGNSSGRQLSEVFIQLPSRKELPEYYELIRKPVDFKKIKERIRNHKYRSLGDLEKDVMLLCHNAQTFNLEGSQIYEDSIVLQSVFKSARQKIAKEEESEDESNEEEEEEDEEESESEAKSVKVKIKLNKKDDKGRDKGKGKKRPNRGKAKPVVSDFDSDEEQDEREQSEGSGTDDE
Chain of Luciferin 4-monooxygenase (P08659 whole entry): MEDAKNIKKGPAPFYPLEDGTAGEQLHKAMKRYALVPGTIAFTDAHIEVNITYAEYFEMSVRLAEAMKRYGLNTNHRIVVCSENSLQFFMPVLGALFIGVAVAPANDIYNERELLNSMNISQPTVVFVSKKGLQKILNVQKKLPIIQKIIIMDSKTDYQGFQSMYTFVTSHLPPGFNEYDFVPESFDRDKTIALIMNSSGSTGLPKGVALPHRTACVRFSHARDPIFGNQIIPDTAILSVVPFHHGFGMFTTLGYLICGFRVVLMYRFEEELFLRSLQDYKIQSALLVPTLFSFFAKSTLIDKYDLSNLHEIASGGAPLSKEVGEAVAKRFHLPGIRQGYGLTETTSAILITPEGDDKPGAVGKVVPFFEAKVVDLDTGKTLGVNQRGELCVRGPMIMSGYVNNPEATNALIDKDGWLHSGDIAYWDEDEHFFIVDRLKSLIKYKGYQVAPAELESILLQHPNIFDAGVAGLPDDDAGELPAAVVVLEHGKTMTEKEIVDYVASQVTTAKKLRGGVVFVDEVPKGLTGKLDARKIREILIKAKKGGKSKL
Chain of Photoreceptor-specific nuclear receptor (Q9Y5X4 whole entry, the tested form may be a part): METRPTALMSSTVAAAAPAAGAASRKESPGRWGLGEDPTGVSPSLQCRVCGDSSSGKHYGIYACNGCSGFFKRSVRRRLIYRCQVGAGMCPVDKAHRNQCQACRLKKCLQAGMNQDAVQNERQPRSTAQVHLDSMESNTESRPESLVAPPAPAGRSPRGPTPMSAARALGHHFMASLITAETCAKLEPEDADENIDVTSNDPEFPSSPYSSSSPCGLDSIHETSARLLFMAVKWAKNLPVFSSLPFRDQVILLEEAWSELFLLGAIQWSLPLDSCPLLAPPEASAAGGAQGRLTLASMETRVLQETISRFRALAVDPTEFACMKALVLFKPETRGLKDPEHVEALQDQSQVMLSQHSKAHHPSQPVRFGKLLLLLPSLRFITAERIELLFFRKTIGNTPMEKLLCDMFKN

## Oc1nncc2c3ccccc3n(Cc3cccc(Cl)c3)c12
[1]
  IC50: 4.55 µM (active)
[2]
  IC50: 4.44 µM (active)

## COc1ccc(NC(=O)N[C@@H]2CC[C@@H](CCn3cc(-c4ccccn4)nn3)O[C@H]2CO)cc1
[3]
  AC50: 82.2 µM (active)

## Brc1ccc(N=Nc2ccc3ccccc3n2)cc1
[4]
  EC50: 0.125 µM (active)
[5]
  EC50: > 40 µM (inactive)
[6]
  EC50: 0.299 µM (active)
[7]
  IC50: > 40 µM (not active)
[8]
  EC50: 0.969 µM (active)
[9]
  EC50: 0.107 µM (active)

## Cn1cc(CC(=O)NCCCN2CCCC2)c2ccccc21
[10]
  AC50: 43.5 µM (active)

## C[C@@H]1CN([C@H]2CC[C@](C#N)(c3ccc(F)cc3)CC2)CC[C@]1(C(=O)O)c1ccccc1 [LEVOCABASTINE HYDROCHLORIDE]
[10]
  AC50: 197 µM (active)

## CCCCC[C@@H]1C=C(C(=O)O)[C@H](c2ccc(Cl)c(Cl)c2)N1S(=O)(=O)c1ccc(C)cc1
[11]
  IC50: 4.88 µM (active)
[12]
  AC50: 4.58 µM (active)

## O=C(Nc1ccccc1Cl)c1ccc2nccnc2c1
[13]
  AC50: 67.6 µM (active)

## Fc1ccc2nc(N3CCCC3)sc2c1
[13]
  AC50: 42.8 µM (active)

## COc1cccc(C2c3[nH]c4ccccc4c3CCN2Cc2ncc[nH]2)c1 (stereo not given)
[3]
  AC50: 123 µM (active)

## O=C(CNc1ccc(Br)cc1)c1ccc(Br)s1
[14]
  EC50: > 91.1 µM (inactive)
[5]
  EC50: > 40 µM (inactive)
[7]
  IC50: 14.7 µM (active)
[15]
  EC50: > 91.1 µM (inactive)
